The record followed here is patent US8278436B2, “Glycosylated warfarin analogs and uses thereof” (priority 2008, dated 2012).

The structures appear in SMILES notation. Read-outs that look alike come from different tables or passages of the source.

Holding throughout (format): cell-based
The test system of assay [1] is A549 human lung adenocarcinoma cells. Kind of assay: cell proliferation assay, A549. The conditions noted are these: read-out: A549 Lung (+p53). The text has this:
(§1) In this Example, the warfarin neoglycosides of the invention were screened for anti-tumor activity in cell proliferation assays using the following tumor cells lines: A549—human lung adenocarcinoma; H1299—human lung adenocarcinoma (p53 null); HCT-15—human colorectal adenocarcinoma; HT-29—human colorectal adenocarcinoma; MCF7—human breast adenocarcinoma; NCI-H460—human lung adenocarcinoma; SF-268—human CNS adenocarcinoma; and SKOV-3—human ovarian adenocarcinoma.
(§2) All cell lines were maintained as previously reported (see Langenhan, J. M.; Peters, N. R.; Guzei, I. A.; Hoffmann, F. M.; Thorson, J. S. Proc. Natl. Acad. Sci. USA 2005, 102, 12305-12310, which is incorporated by reference herein). Cells were harvested using 0.25% trypsin and 0.1% EDTA and counted in a Cellometer Auto T4 cell counter (Nexcelom, Inc.) prior to dilution for assay plating. Cells were plated at a denity of 500 cells per well in 50 μL volumes in 384-well clear-bottom tissue culture plates (Corning-Costar, Inc.).
(§3) Compounds were added from the 384-well compound stock plates at a 1:100 dilution using a Biomek FX liquid handler equipped with a 384-channel head (Beckman Coulter, Inc.). The plates were incubated for 7 days at 37° C. in a 5% CO2 atmosphere prior to performing the assays. Calcein AM (acetoxymethyl ester) reagent and EthD-1 (30 μL, 10 μM CAM and 100 μM EthD-1) was added and the cells were incubated for 30 min at 37° C. […] resulting from incubation with Calcein AM and EthD-1 was read using a Safire-2 microplate reader at the appropriate wavelengths. To lyse the cells, 15 μL of CellTiter-Glo reagent (Promega Corporation, Inc.) was added and the cells were incubated for 10 min at room temperature with gentle agitation. The luminescence of each plate was re-read to confirm the observed inhibition.
(§4) IC50s for cell proliferation assays were determined for Calcein AM, the ratio of live/dead cells (Calcein AM/EthD-1), and CellTiter-Glo using XLfit 4.0 as previously described (see Langenhan, J. M.; Peters, N. R.; Guzei, I. A.; Hoffmann, F. M.; Thorson, J. S. Proc. Natl. Acad. Sci. USA 2005, 102, 12305-12310, which is incorporated by reference herein). The IC50 determined using the best fit curve for dosage response from any of the 3 assays is reported as the final IC50. The best fit curve is defined as the curve with the lowest standard error.

Assay [2] has as its system H1299 human lung adenocarcinoma (p53 null) cells. Kind of assay: cell proliferation assay, H1299.
Source text: as §1, §2, §3
(§5) IC50s for cell proliferation assays were determined for Calcein AM, the ratio of live/dead cells (Calcein AM/EthD-1), and CellTiter-Glo using XLfit 4.0 as previously described (see Langenhan, J. M.; Peters, N. R.; Guzei, I. A.; Hoffmann, F. M.; Thorson, J. S. Proc. Natl. Acad. Sci. USA 2005, 102, 12305-12310, which is incorporated by reference herein). The IC50 determined using the best fit curve for dosage response from any of the 3 assays is reported as the final IC50.

The subject of assay [3] is HCT-15 human colorectal adenocarcinoma cells. The assay is described as follows: cell proliferation assay, HCT-15. The conditions noted are these: Table 3 summary of most active compounds, IC50, read-out: HCT15 Colorectal.
Source text: as §1, §2, §3, §4

Assay [4] has as its system HT-29 human colorectal adenocarcinoma cells. The assay is described as follows: cell proliferation assay, HT-29.
Source text: as §1, §2, §3, §4

The subject of assay [5] is MCF7 human breast adenocarcinoma cells. Kind of assay: cell proliferation assay, MCF7.
Source text: as §1, §2, §3, §5

The test system of the next assay is NCI/ADR-RES. The assay is described as follows: cell proliferation assay, NCI/ADR-RES. The conditions noted are these: Table 3 summary of most active compounds. How it is done: as §2, §3, §5
Assay [6] relates to NCI-H460 human lung adenocarcinoma cells. The assay is described as follows: cell proliferation assay, NCI-H460.
Source text: as §1, §2, §3, §4

Assay [7] deals with SF-268 human CNS adenocarcinoma cells. Kind of assay: cell proliferation assay, SF-268.
Source text: as §1, §2, §3, §5

The test system of assay [8] is SKOV-3 human ovarian adenocarcinoma cells. The assay is described as follows: cell proliferation assay, SKOV-3. The conditions noted are these: read-out: SKOV3 Ovarian.
Source text: as §1, §2, §3, §4

[9] abbreviates: Table 3 summary of most active compounds, listed as D-ribose.
[10] abbreviates: Table 3 summary of most active compounds, listed as L-lyxose.
The mark [11] stands for this setting: Table 3 summary of most active compounds.
The mark [12] stands for this setting: Table 3 summary of most active compounds, IC50, read-out: H729 Colorectal.
The mark [13] stands for this setting: Table 3 summary of most active compounds, IC50, read-out: SF268 Giloblast.

In the case of `CON(C(C)CC(c1ccccc1)c1c(O)c2ccccc2oc1=O)C1OCC(O)C(O)C1O` (mixture of isomers) [WARF Analog 22], the IC50 in assay [1] (setting [9]) was more than 100 µM; in assay [2] (setting [9]), 44 µM; in assay [3] (listed as D-ribose), 27 µM; in assay [4] (Table 3 summary of most active compounds, IC50, listed as D-ribose, read-out: H729 Colorectal), 77 µM; in assay [5] (setting [9]), 41 µM; in the assay with NCI/ADR-RES (listed as D-ribose), 66 µM. Further, the IC50 in assay [6] (setting [9]) was more than 100 µM; in [7] (Table 3 summary of most active compounds, IC50, listed as D-ribose, read-out: SF268 Giloblast), 72 µM; in [8] (setting [9]) it was 60 µM.
Consider `CON(C(C)CC(c1ccccc1)c1c(O)c2ccccc2oc1=O)C1OCC(O)C(O)C1O` (mixture of isomers) [WARF Analog 23], for which the IC50 in assay [1] (setting [10]) is 95 µM; in assay [2] (setting [10]), 30 µM; in assay [3] (listed as L-lyxose), 14 µM; in assay [4] (Table 3 summary of most active compounds, IC50, listed as L-lyxose, read-out: H729 Colorectal), 47 µM; in assay [5] (setting [10]), 18 µM; with NCI/ADR-RES (listed as L-lyxose), 56 µM. The IC50 in [6] (setting [10]) is more than 100 µM; in assay [7] (Table 3 summary of most active compounds, IC50, listed as L-lyxose, read-out: SF268 Giloblast), more than 100 µM; in [8] (setting [10]), 60 µM.
Take `CON(C(C)CC(c1ccccc1)c1c(O)c2ccccc2oc1=O)C1CC(C)(O)C(O)C(C)O1` (mixture of isomers) [WARF Analog 37]: the IC50 in assay [1] (setting [11]) was more than 100 µM; in assay [2] (setting [11]), more than 100 µM; in assay [3] it was 16 µM; in assay [4] (setting [12]), more than 100 µM; in assay [5] (setting [11]) it was more than 100 µM; in the assay with NCI/ADR-RES, more than 100 µM. The IC50 in assay [6] (setting [11]), in assay [7] (setting [13]) and in assay [8] (setting [11]) was more than 100 µM throughout.
On to `CON(C(C)CC(c1ccccc1)c1c(O)c2ccccc2oc1=O)C1C[C@@H](O)[C@@H](O)CO1` (stereo partly drawn) [WARF Analog 10], for which the IC50 in assay [1] (setting [11]) was more than 100 µM; in assay [2] (setting [11]), 77 µM; in assay [3], 12 µM; in [4] (setting [12]), 88 µM; in assay [5] (setting [11]), 66 µM; in the assay with NCI/ADR-RES, 92 µM. The IC50 in assay [6] (setting [11]), in [7] (setting [13]) and in assay [8] (setting [11]) was more than 100 µM in each case.
As to `CONC(C)CC(c1ccccc1)c1c(O)c2ccccc2oc1=O` (stereo not drawn) [WARF Analog C, 4-hydroxy-3-(3-(methoxyamino)-1-phenylbutyl)-2H-1-benzopyran-2-one], the IC50 is more than 100 µM in [1] (Homo sapiens, A549, Table 3 summary of most active compounds); more than 100 µM in [2] (Homo sapiens, NCI-H1299, Table 3 summary of most active compounds); more than 100 µM in [3] (Homo sapiens, HCT-15); more than 100 µM in assay [4] (Homo sapiens, HT-29, read-out: H729 Colorectal); more than 100 µM in [5] (Homo sapiens, MCF7, Table 3 summary of most active compounds); more than 100 µM with NCI/ADR-RES (Homo sapiens). Moreover, the IC50 was more than 100 µM in assay [6] (Homo sapiens, NCI-H460, Table 3 summary of most active compounds); more than 100 µM in assay [7] (Homo sapiens, SF-268, read-out: SF268 Giloblast); more than 100 µM in [8] (Homo sapiens, SK-OV-3, Table 3 summary of most active compounds).
